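Assay format: 96-well plates, 48-hour exposure. At the TGI there is no net growth.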
Tests used:
Assay in all cases: inhibition of tumour cell growth, NCI panel, 48 h
[1] = system: OVCAR-3 ovarian
[2] = system: CCRF-CEM leukemia
[3] = system: K-562 leukemia
[4] = system: M14 melanoma
[5] = system: NCI-H522 lung
[6] = system: SK-MEL-28 melanoma
[7] = system: SF-539 CNS
[8] = system: SR leukemia
[9] = system: NCI-H226 lung
[10] = system: HOP-92 NSCLC
[11] = system: U251 CNS
[12] = system: HOP-18 NSCLC
[13] = system: OVCAR-8 ovarian
[14] = system: COLO 205 colon
[15] = system: MALME-3M melanoma
[16] = system: MOLT-4 leukemia
[17] = system: ACHN renal
[18] = system: SNB-78 CNS
[19] = system: OVCAR-4 ovarian
[20] = system: XF 498 CNS
[21] = system: LOX IMVI melanoma
[22] = system: LXFL 529 NSCLC
[23] = system: UACC-257 melanoma
[24] = system: HT29 colon
[25] = system: A549 NSCLC
[26] = system: EKVX NSCLC
[27] = system: SK-MEL-2 melanoma
[28] = system: KM12 colon
[29] = system: RPMI-8226 leukemia
[30] = system: SF-295 CNS
[31] = system: KM20L2 colon
[32] = system: SF-268 CNS
[33] = system: HL-60(TB) leukemia
[34] = system: HCT-116 colon
[35] = system: UACC-62 melanoma
[36] = system: HCC-2998 colon
[37] = system: 786-0 renal
[38] = system: SW-620 colon
[39] = system: SNB-75 CNS
[40] = system: TK-10 renal
[41] = system: IGROV1 ovarian
[42] = system: HOP-62 NSCLC
[43] = system: SK-OV-3 ovarian
[44] = system: DMS 114 small cell lung
[45] = system: DLD-1 colon
[46] = system: SNB-19 CNS
[47] = system: NCI-H460 lung
[48] = system: NCI-H23 lung
[49] = system: RXF 393 renal
[50] = system: A498 renal
[51] = system: HCT-15 colon
[52] = system: DMS 273 small cell lung
[53] = system: SN12C renal
[54] = system: UO-31 renal
[55] = system: M19-MEL melanoma

## c1ccc2c(c1)nnn2CNc1ccc(N2CCCCC2)cc1
[1]
  TGI: > 100 µM
[2]
  TGI: > 100 µM
[3]
  TGI: > 100 µM
[4]
  TGI: > 100 µM
[5]
  TGI: > 100 µM
[6]
  TGI: > 100 µM
[7]
  TGI: > 100 µM
[8]
  TGI: > 100 µM
[9]
  TGI: > 100 µM
[10]
  TGI: > 100 µM
[11]
  TGI: > 100 µM
[12]
  TGI: > 100 µM
[13]
  TGI: > 100 µM
[14]
  TGI: > 100 µM
[15]
  TGI: > 100 µM
[16]
  TGI: > 100 µM
[17]
  TGI: > 100 µM
[18]
  TGI: > 100 µM
[19]
  TGI: > 100 µM
[20]
  TGI: > 100 µM
[21]
  TGI: > 100 µM
[22]
  TGI: > 100 µM
[23]
  TGI: > 100 µM
[24]
  TGI: > 100 µM
[25]
  TGI: > 100 µM
[26]
  TGI: > 100 µM
[27]
  TGI: > 100 µM
[28]
  TGI: > 100 µM
[29]
  TGI: > 100 µM
[30]
  TGI: > 100 µM
[31]
  TGI: > 100 µM
[32]
  TGI: > 100 µM
[33]
  TGI: > 100 µM
[34]
  TGI: > 100 µM
[35]
  TGI: > 100 µM
[36]
  TGI: > 100 µM
[37]
  TGI: > 100 µM
[38]
  TGI: > 100 µM
[39]
  TGI: > 100 µM
[40]
  TGI: > 100 µM
[41]
  TGI: > 100 µM
[42]
  TGI: > 100 µM
[43]
  TGI: > 100 µM
[44]
  TGI: > 100 µM
[45]
  TGI: > 100 µM
[46]
  TGI: > 100 µM
[47]
  TGI: > 100 µM
[48]
  TGI: > 100 µM
[49]
  TGI: > 100 µM
[50]
  TGI: > 100 µM
[51]
  TGI: > 100 µM
[52]
  TGI: > 100 µM
[53]
  TGI: > 100 µM
[54]
  TGI: > 100 µM

## O=c1oc2cc(O)ccc2c2[nH]c3cc(O)ccc3c12
[1]
  TGI: 56.5 µM
[2]
  TGI: > 100 µM
[3]
  TGI: > 100 µM
[4]
  TGI: > 100 µM
[5]
  TGI: 32.9 µM
[6]
  TGI: > 100 µM
[7]
  TGI: 49.9 µM
[8]
  TGI: > 100 µM
[9]
  TGI: 78 µM
[10]
  TGI: 95.4 µM
[11]
  TGI: > 100 µM
[12]
  TGI: > 100 µM
[13]
  TGI: 78.7 µM
[14]
  TGI: 74.9 µM
[15]
  TGI: > 100 µM
[16]
  TGI: > 100 µM
[17]
  TGI: 62.5 µM
[18]
  TGI: > 100 µM
[19]
  TGI: 99.6 µM
[20]
  TGI: 73.6 µM
[21]
  TGI: 33.8 µM
[22]
  TGI: > 100 µM
[23]
  TGI: > 100 µM
[24]
  TGI: > 100 µM
[25]
  TGI: > 100 µM
[26]
  TGI: 90.1 µM
[27]
  TGI: 50.2 µM
[28]
  TGI: 53.1 µM
[29]
  TGI: > 100 µM
[30]
  TGI: > 100 µM
[31]
  TGI: > 100 µM
[32]
  TGI: 64.8 µM
[33]
  TGI: > 100 µM
[34]
  TGI: 31.5 µM
[35]
  TGI: 31.7 µM
[36]
  TGI: 57 µM
[37]
  TGI: > 100 µM
[38]
  TGI: > 100 µM
[39]
  TGI: 46.2 µM
[40]
  TGI: > 100 µM
[55]
  TGI: 98.7 µM
[41]
  TGI: 57.9 µM
[42]
  TGI: 59.6 µM
[43]
  TGI: 63.1 µM
[44]
  TGI: 53.8 µM
[45]
  TGI: 74.8 µM
[46]
  TGI: > 100 µM
[47]
  TGI: 96.4 µM
[48]
  TGI: 51.5 µM
[49]
  TGI: 47.5 µM
[50]
  TGI: > 100 µM
[51]
  TGI: 81.8 µM
[52]
  TGI: 88.6 µM
[53]
  TGI: > 100 µM
[54]
  TGI: 97.5 µM
